In PubChem BioAssay AID330 (DTP/NCI, 2004):
“And” between values parts separate entries of the source, which are not always exact repeats. Equal values may be shown once. Inconclusive results and toxic doses are left out. How the source made its calls: active means survival T/C of 150% or more; inactive means T/C below 125% in these data.

System: P388 leukemia ip, CD2F1 mice, survival T/C
Test: NCI In Vivo Anticancer Drug Screen. Data for tumor model P388 Leukemia (intraperitoneal) in CD2F1 (CDF1) mice
Conditions: endpoint: median survival time, higher = longer survival
Summary of the method: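 Mice carrying the transplanted tumor received test compound or vehicle. Survival was recorded in each group, and the value is the treated-group measurement divided by that of the vehicle-treated control group.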

[1] = dose: 50.0 mg/kg/injection, schedule: Q01DX009 (ip), vehicle: Klucel (hydroxypropylcellulose) (HPC)
[2] = dose: 100.0 mg/kg/injection, schedule: Q01DX009 (ip), vehicle: Klucel (hydroxypropylcellulose) (HPC)
[3] = dose: 200.0 mg/kg/injection, schedule: Q01DX009 (ip), vehicle: Klucel (hydroxypropylcellulose) (HPC)
[4] = dose: 50.0 mg/kg/injection, schedule: Q01DX005 (ip), vehicle: Klucel (hydroxypropylcellulose) (HPC)
[5] = dose: 100.0 mg/kg/injection, schedule: Q01DX005 (ip), vehicle: Klucel (hydroxypropylcellulose) (HPC)
[6] = dose: 200.0 mg/kg/injection, schedule: Q01DX005 (ip), vehicle: Klucel (hydroxypropylcellulose) (HPC)
[7] = dose: 50.0 mg/kg/injection, schedule: Q01DX009 (ip), vehicle: saline with Tween-80
[8] = dose: 100.0 mg/kg/injection, schedule: Q01DX009 (ip), vehicle: saline with Tween-80
[9] = dose: 200.0 mg/kg/injection, schedule: Q01DX009 (ip), vehicle: saline with Tween-80
[10] = dose: 50.0 mg/kg/injection, schedule: Q01DX005 (ip), vehicle: saline
[11] = dose: 100.0 mg/kg/injection, schedule: Q01DX005 (ip), vehicle: saline
[12] = dose: 200.0 mg/kg/injection, schedule: Q01DX005 (ip), vehicle: saline
[13] = dose: 12.5 mg/kg/injection, schedule: Q01DX009 (ip), vehicle: distilled water + Tween-80
[14] = dose: 25.0 mg/kg/injection, schedule: Q01DX009 (ip), vehicle: distilled water + Tween-80
[15] = dose: 50.0 mg/kg/injection, schedule: Q01DX009 (ip), vehicle: distilled water + Tween-80

Measured: T/C

CC(=O)NCN(C)[N+](=O)[O-]
inactive: dose: 60.0 mg/kg/injection, schedule: Q01DX005 (ip), vehicle: saline 115 % of control | dose: 120.0 mg/kg/injection, schedule: Q01DX005 (ip), vehicle: saline 97 % of control | dose: 240.0 mg/kg/injection, schedule: Q01DX005 (ip), vehicle: saline 108 % of control

C1CCC([N-]C2CCCCC2)CC1.C1CCC([N-]C2CCCCC2)CC1.[Cl][Pt+2][Cl]
inactive: dose: 100.0 mg/kg/injection, schedule: Q01DX001 (sc), vehicle: other 103 % of control | dose: 200.0 mg/kg/injection, schedule: Q01DX001 (sc), vehicle: other 107 % of control

Cc1onc(-c2ccccc2Cl)c1C1=N/C(=C/c2cc(Cl)cc(Cl)c2O)C(=O)O1
inactive: [1] 114 % of control | [2] 104 % of control | [3] 96 % of control

COc1cc2c3c(c1O)-c1cc4c(cc1CC3N(C)CC2)OCO4 (stereo not given)
inactive: dose: 10.0 mg/kg/injection, schedule: Q01DX009 (ip), vehicle: saline with Tween-80 102 % of control | dose: 20.0 mg/kg/injection, schedule: Q01DX009 (ip), vehicle: saline with Tween-80 104 % of control | dose: 40.0 mg/kg/injection, schedule: Q01DX009 (ip), vehicle: saline with Tween-80 98 % of control | dose: 100.0 mg/kg/injection, schedule: Q04DX002 (ip), vehicle: saline with Tween-80 97 % of control

NC(=O)C(Cl)Cl
inactive: dose: 100.0 mg/kg/injection, schedule: Q04DX002 (ip), vehicle: saline 108 % of control | dose: 200.0 mg/kg/injection, schedule: Q04DX002 (ip), vehicle: saline 100 % of control | dose: 400.0 mg/kg/injection, schedule: Q04DX002 (ip), vehicle: saline 100 % of control

Cc1ccc(O)c(C(=NCCCCN=C(c2ccccc2)c2cc(C)ccc2O)c2ccccc2)c1.[Ni]
inactive: dose: 25.0 mg/kg/injection, schedule: Q01DX005 (ip), vehicle: Klucel (hydroxypropylcellulose) (HPC) 97 % of control | [4] 97 % of control | [5] 103 % of control | [6] 94 % of control

CSc1ccccc1[As](c1ccccc1)c1ccccc1SC
inactive: [1] 90 % of control | [2] 92 % of control | [3] 95 % of control

CO[C@H](C(=O)[C@@H](O)[C@@H](C)O)[C@@H]1Cc2cc3cc(O)c(C)c(O)c3c(O)c2C(=O)[C@H]1O
inactive: dose: 8.0 mg/kg/injection, schedule: Q01DX009 (ip), vehicle: water 107 % of control | dose: 16.0 mg/kg/injection, schedule: Q01DX009 (ip), vehicle: water 114 % of control | dose: 32.0 mg/kg/injection, schedule: Q01DX009 (ip), vehicle: water 100 % of control

O=C(NC(Cc1ccc(I)cc1)C(=O)O)c1ccc(Br)cc1 (stereo not given)
inactive: dose: 12.5 mg/kg/injection, schedule: Q01DX005 (ip), vehicle: sodium bicarbonate 104 % of control | dose: 25.0 mg/kg/injection, schedule: Q01DX005 (ip), vehicle: sodium bicarbonate 100 % of control | [4] 98 % of control | dose: 50.0 mg/kg/injection, schedule: Q01DX005 (ip), vehicle: sodium bicarbonate 94 % of control | [5] 98 % of control | dose: 100.0 mg/kg/injection, schedule: Q01DX005 (ip), vehicle: sodium bicarbonate 90 % of control and 94 % of control | [6] 101 % of control

CCO/C=N\Nc1ccc2nnc(Cl)n2n1
inactive: dose: 50.0 mg/kg/injection, schedule: Q01DX009 (ip), vehicle: saline 92 % of control | dose: 100.0 mg/kg/injection, schedule: Q01DX009 (ip), vehicle: saline 103 % of control | dose: 200.0 mg/kg/injection, schedule: Q01DX009 (ip), vehicle: saline 93 % of control

CCC(C)CCC(=O)O (stereo not given)
inactive: [7] 98 % of control | [8] 97 % of control | [9] 99 % of control

C=C(C)CC(N)C(=O)O (stereo not given)
inactive: [10] 103 % of control | [11] 100 % of control | [12] 99 % of control

CCOc1cc2cc(CCC#N)c(C)cc2cn1
inactive: [13] 93 % of control | [14] 87 % of control | [15] 87 % of control

CCCCCCCCC1=CCc2c1ccc1c2ccc2cc(C(=O)Oc3cccc(N(CCCl)CCCl)c3)ccc21
inactive: dose: 100.0 mg/kg/injection, schedule: Q01DX001 (ip), vehicle: saline 99 % of control | dose: 200.0 mg/kg/injection, schedule: Q01DX001 (ip), vehicle: saline 100 % of control | dose: 400.0 mg/kg/injection, schedule: Q01DX001 (ip), vehicle: saline 100 % of control

CCOC(=O)NN(C(=O)OCC)C1CCN=C1C(=O)OC (stereo not given)
inactive: [10] 98 % of control | [11] 88 % of control | [12] 98 % of control

COC1/C=C/OC2(C)Oc3c(C)c(O)c4c(O)c(c(C=NN5C(C)CN(Cc6ccc(Cl)cc6)CC5C)c(O)c4c3C2=O)NC(=O)/C(C)=C/C=C/C(C)C(O)C(C)C(O)C(C)C(OC(C)=O)C1C (stereo not given)
inactive: [7] 98 % of control | [8] 95 % of control | [9] 95 % of control

Cc1ccc2c(c1)Nc1ccc(C)cc1C2(C)C
inactive: [4] 104 % of control | [5] 100 % of control | [6] 97 % of control

CN(NC(=O)C(=O)NCc1ccco1)C(=O)Nc1ccccc1
inactive: [4] 100 % of control | [5] 99 % of control | [6] 99 % of control

O=C1NC(=Nc2ccccc2)N(c2ccccc2)C1=Nc1ccccc1
inactive: [7] 88 % of control | [8] 91 % of control | [9] 86 % of control

Cc1cn(CC2C=CC(CS[As](C)C)O2)c(=O)[nH]c1=O (stereo not given)
inactive: [13] 99 % of control | [14] 108 % of control | [15] 101 % of control | dose: 100.0 mg/kg/injection, schedule: Q01DX009 (ip), vehicle: distilled water + Tween-80 119 % of control

Nc1[nH][nH]c(=O)c1N
inactive: [10] 101 % of control | [11] 101 % of control | [12] 107 % of control

COC(=O)c1cc(=O)n(Cc2ccco2)c(=Nc2ccccc2)s1
inactive: dose: 50.0 mg/kg/injection, schedule: Q01DX005 (ip), vehicle: saline with Tween-80 98 % of control | dose: 100.0 mg/kg/injection, schedule: Q01DX005 (ip), vehicle: saline with Tween-80 97 % of control | dose: 200.0 mg/kg/injection, schedule: Q01DX005 (ip), vehicle: saline with Tween-80 94 % of control

COC1CC(C)(OC(C)=O)Cc2cc3c(c(OC(C)=O)c21)C(=O)c1c(OC(C)=O)cc2c(c1C3=O)OC1OC2(C)C(OC(C)=O)C(N(C)C)C1OC(C)=O (stereo not given)
inactive: dose: 1.25 mg/kg/injection, schedule: Q01DX009 (ip), vehicle: other 102 % of control | dose: 2.5 mg/kg/injection, schedule: Q01DX009 (ip), vehicle: other 112 % of control and 106 % of control | dose: 5.0 mg/kg/injection, schedule: Q01DX009 (ip), vehicle: other 105 % of control and 101 % of control | dose: 10.0 mg/kg/injection, schedule: Q01DX009 (ip), vehicle: other 114 % of control and 115 % of control | dose: 20.0 mg/kg/injection, schedule: Q01DX009 (ip), vehicle: other 121 % of control

O=C(N/N=C/c1cc(Br)cc(Br)c1[O-])c1ccccc1.O=C(N/N=C/c1cc(Br)cc(Br)c1[O-])c1ccccc1.[Cu+2]
inactive: dose: 12.5 mg/kg/injection, schedule: Q01DX001 (ip), vehicle: saline with Tween-80 91 % of control | dose: 25.0 mg/kg/injection, schedule: Q01DX001 (ip), vehicle: saline with Tween-80 89 % of control | dose: 50.0 mg/kg/injection, schedule: Q01DX001 (ip), vehicle: saline with Tween-80 100 % of control
